Here are results for 20 molecules from US9464076B2, “Benzothiophene derivative” (Daiichi Sankyo Company, Limited, priority 2013, dated 2016).

Assay [1] concerns the target PDE10A (H-PDE10A2, Human Phosphodiesterase 10A2) (Homo sapiens (Human), UniProt Q9Y233). The assay is described as follows: Measurement of PDE10A inhibitory activity-1 (3H-cAMP, recombinant enzyme). It is filed as biochemical. The following applies: H-PDE10A2, 64 nM cAMP, 25° C., 2 hours. How it is done:
To a solution containing 20 mM Tris-HCl (pH 7.5), 1 mM MgCl2, 100 μM EDTA, 330 μg/ml bovine serum albumin, 50 kU/ml 5′-nucleotidase, 0.1 μCi ^3H-cAMP (64 nM cAMP), and PDE10A (H-PDE10A2, Human Phosphodiesterase 10A2, Scottish Biomedical), a test compound was added, and the mixture was reacted at 25° C. for 2 hours. To the reaction solution, QAE-Sephadex (17-0190-01, GE Healthcare Japan Corp.) suspended in 10 mM HEPES-Na (pH 7.0) (hereinafter, also referred to as a “QAE-Sephadex suspension”) was added, and the mixture was shaken for 1 minute and left standing for 5 minutes to obtain a supernatant. To the supernatant, a QAE-Sephadex suspension was further added, and the mixture was shaken for 1 minute and left standing for 5 minutes. Then, the obtained supernatant was transferred to LumaPlate (PerkinElmer, Inc.) and assayed using a radiation counter (TopCount NXT, PerkinElmer, Inc.).
The value of the sample reacted without the addition of both a test compound and PDE10A was defined as 0%, and the value of the sample reacted in the presence of PDE10A without the addition of a test compound was defined as 100%.

A further assay has as its target PDE10A (Homo sapiens (Human), UniProt Q9Y233). The assay is described as follows: Measurement of PDE10A inhibitory activity-2 (PDE10A fraction prepared from MOLT-4 cells). The following applies: PDE10A fraction from MOLT-4 cells (peak around 250 mM NaCl). In kind it is biochemical. In a few lines: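 Enzyme source was a PDE10A-containing fraction from MOLT-4 cell soluble extract, resolved by HiTrap Q anion exchange with a 0–0.8 M NaCl gradient and selected by cAMP-hydrolysing activity. IC50 determined with this fraction by the same procedure as the preceding PDE10A assay.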

In a further assay the test system is Male C57BL/6 Cr mice. The assay is described as follows: Test on suppression of phencyclidine-induced hyperlocomotion in mice. It is filed as in vivo, mouse. The following applies: locomotor activity, test compound 10 mg/kg oral, phencyclidine 5 mg/kg s.c. approx. 1 hour later, measured for 1 hour; for inhibition in vivo at 10 mg/kg: Mus musculus, po, 1 h. How it is done: Male C57BL/6 Cr mice (Japan SLC, Inc.) (8 weeks old) were used in the experiment. A test compound was suspended at 1 mg/mL in a 0.5% hydroxypropylcellulose solution to prepare a suspension for administration. The suspension of the test compound or a solvent (0.5% hydroxypropylcellulose solution) was orally administered at a dose of 10 mL/kg to each mouse. After the administration, the mouse was immediately placed in a locomotor activity measurement apparatus (Muromachi Kikai Co., Ltd., locomotor activity measurement system SUPERMEX). Approximately 1 hour later, phencyclidine (5 mg/10 mL/kg) or a solvent (10 mL/kg saline) was subcutaneously administered to the mouse. The locomotor activity was measured from immediately after the subcutaneous administration to 1 hour later.
Percent inhibition exceeding 100 means that when the activity of the phencyclidine administration control group was defined as 100, the activity of the group given a test compound was lower than that of the solvent administration control group.

Counter-ions that a name gives are not always drawn.

PDE10A (H-PDE10A2, Human Phosphodiesterase 10A2), sequence (Q9Y233 267-1055): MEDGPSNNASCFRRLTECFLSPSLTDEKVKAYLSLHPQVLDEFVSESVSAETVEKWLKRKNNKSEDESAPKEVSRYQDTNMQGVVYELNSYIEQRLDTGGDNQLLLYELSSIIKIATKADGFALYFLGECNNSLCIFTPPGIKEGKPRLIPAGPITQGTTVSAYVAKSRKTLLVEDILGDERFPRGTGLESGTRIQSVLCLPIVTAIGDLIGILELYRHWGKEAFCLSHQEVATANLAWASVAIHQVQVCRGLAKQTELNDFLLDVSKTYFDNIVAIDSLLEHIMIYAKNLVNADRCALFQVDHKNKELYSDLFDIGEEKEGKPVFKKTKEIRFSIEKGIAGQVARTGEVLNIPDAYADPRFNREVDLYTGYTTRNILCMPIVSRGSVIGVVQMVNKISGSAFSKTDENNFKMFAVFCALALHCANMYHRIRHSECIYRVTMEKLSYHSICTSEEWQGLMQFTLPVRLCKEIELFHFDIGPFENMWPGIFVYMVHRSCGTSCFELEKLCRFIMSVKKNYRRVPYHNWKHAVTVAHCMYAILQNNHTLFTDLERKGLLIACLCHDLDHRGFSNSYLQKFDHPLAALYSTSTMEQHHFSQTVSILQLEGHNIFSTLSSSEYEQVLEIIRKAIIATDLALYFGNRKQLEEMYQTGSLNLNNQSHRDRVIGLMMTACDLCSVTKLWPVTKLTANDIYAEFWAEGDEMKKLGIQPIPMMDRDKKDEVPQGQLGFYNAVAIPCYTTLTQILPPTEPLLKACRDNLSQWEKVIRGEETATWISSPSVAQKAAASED
PDE10A, sequence (Q9Y233 whole entry): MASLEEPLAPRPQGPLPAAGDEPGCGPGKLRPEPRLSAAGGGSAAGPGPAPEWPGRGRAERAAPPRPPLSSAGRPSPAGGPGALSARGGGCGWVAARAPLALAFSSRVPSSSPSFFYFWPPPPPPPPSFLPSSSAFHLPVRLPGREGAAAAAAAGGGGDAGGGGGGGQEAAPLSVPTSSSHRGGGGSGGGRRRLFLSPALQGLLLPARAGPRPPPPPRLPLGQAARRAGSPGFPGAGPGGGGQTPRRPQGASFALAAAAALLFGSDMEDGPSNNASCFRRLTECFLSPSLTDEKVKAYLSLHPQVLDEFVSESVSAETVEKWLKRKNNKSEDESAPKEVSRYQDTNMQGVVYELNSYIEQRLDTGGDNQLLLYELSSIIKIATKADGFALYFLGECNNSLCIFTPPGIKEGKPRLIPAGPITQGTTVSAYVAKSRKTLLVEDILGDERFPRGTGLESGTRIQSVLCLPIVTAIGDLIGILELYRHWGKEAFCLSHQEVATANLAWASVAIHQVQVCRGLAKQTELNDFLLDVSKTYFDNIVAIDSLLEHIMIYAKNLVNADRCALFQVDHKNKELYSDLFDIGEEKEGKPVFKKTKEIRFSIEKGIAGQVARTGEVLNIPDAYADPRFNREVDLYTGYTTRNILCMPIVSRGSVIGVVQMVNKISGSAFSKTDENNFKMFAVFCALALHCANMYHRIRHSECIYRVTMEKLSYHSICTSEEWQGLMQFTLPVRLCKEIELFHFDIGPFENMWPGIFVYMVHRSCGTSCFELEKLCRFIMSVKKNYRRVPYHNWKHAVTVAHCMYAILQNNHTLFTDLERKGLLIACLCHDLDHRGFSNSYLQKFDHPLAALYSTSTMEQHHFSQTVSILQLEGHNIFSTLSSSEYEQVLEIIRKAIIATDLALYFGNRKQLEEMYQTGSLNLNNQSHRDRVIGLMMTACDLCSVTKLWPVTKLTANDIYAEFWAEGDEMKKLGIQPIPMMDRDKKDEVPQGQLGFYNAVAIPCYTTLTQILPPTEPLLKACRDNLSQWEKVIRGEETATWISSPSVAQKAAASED

Usually IC50 stands for the midpoint of a concentration-inhibition curve. Take `CC(=O)c1ccc(C(C)=O)c2c(C)c(C(=O)Nc3cc(C(C)(C)O)c4ccccc4n3)sc12` [Example 3, 4,7-Diacetyl-N-(4-(2-hydroxypropan-2-yl)quinolin-2-yl)-3-methylbenzo[b]thiophene-2-carboxamide hydrochloride]: the half-maximal inhibitory concentration (IC50) in assay [1] (hydrochloride) is 5.9 nM.

For the molecule `CC(=O)c1ccc(C(C)=O)c2c(C)c(C(=O)Nc3cc(C(C)(C)O)c4ccccc4n3)sc12` [Example 4, 4,7-Diacetyl-N-(4-(2-hydroxypropan-2-yl)quinolin-2-yl)-3-methylbenzo[b]thiophene-2-carboxamide hydrobromide], the concentration for half-maximal inhibition (IC50) in assay [1] (hydrobromide) was found to be 5.8 nM.

As for `CC(=O)c1ccc(C(C)=O)c2c(C)c(C(=O)Nc3cc(C(C)(C)O)c4ccccc4n3)sc12` [Example 5, 4,7-Diacetyl-N-(4-(2-hydroxypropan-2-yl)quinolin-2-yl)-3-methylbenzo[b]thiophene-2-carboxamide semisulfate], the IC50 in assay [1] amounted to 11 nM.

As for `CC(=O)c1ccc(C(C)=O)c2c(C)c(C(=O)Nc3cc(C(C)(C)O)c4ccccc4n3)sc12` [Example 6, 4,7-Diacetyl-N-(4-(2-hydroxypropan-2-yl)quinolin-2-yl)-3-methylbenzo[b]thiophene-2-carboxamide methanesulfonate], the half-maximal inhibitory concentration (IC50) in assay [1] (methanesulfonate) stood at 5.1 nM.

As for `COCc1ccc(C(C)=O)c2sc(C(=O)Nc3cc(C(C)(C)O)c4ccccc4n3)c(C)c12` [Example 27, 7-Acetyl-N-(4-(2-hydroxypropan-2-yl)quinolin-2-yl)-4-(methoxymethyl)-3-methylbenzo[b]thiophene-2-carboxamide hydrochloride], in assay [1] (hydrochloride), the half-inhibitory concentration (IC50) is 1.6 nM.

Take `COCc1ccc(C(C)=O)c2sc(C(=O)Nc3cc(C(C)(C)O)c4ccccc4n3)c(C)c12` [Example 28, 7-Acetyl-N-(4-(2-hydroxypropan-2-yl)quinolin-2-yl)-4-(methoxymethyl)-3-methylbenzo[b]thiophene-2-carboxamide hydrobromide]: in assay [1] (hydrobromide), the IC50 stood at 2 nM.

Take `COCc1ccc(C(C)=O)c2sc(C(=O)Nc3cc(CN4CC[C@@H](O)C4)c4ccccc4n3)c(C)c12` [Example 40, (R)-7-Acetyl-N-(4-((3-hydroxypyrrolidin-1-yl)methyl)quinolin-2-yl)-4-(methoxymethyl)-3-methylbenzo[b]thiophene-2-carboxamide hydrochloride]: in assay [1] (hydrochloride), the IC50 was determined as 0.65 nM.

In the case of `COCc1ccc(C(C)=O)c2sc(C(=O)Nc3cc(CN4CC[C@@H](O)C4)c4ccccc4n3)c(C)c12` [Example 41, (R)-7-Acetyl-N-(4-((3-hydroxypyrrolidin-1-yl)methyl)quinolin-2-yl)-4-(methoxymethyl)-3-methylbenzo[b]thiophene-2-carboxamide p-toluenesulfonate], the IC50 in assay [1] (p-toluenesulfonate) was 1.3 nM.

In the case of `COCc1cccc2nc(NC(=O)c3sc4c(C(C)=O)ccc(COC)c4c3C)ccc12` [Example 67, 7-Acetyl-4-(methoxymethyl)-N-(5-(methoxymethyl)quinolin-2-yl)-3-methylbenzo[b]thiophene-2-carboxamide], the IC50 in assay [1] was determined as 1.8 nM.

For orientation: % inhibition means the relative decrease from the control value, in per cent. Regarding `COCc1ccc(C(C)=O)c2sc(C(=O)Nc3ccc4c(C(=O)N5CC(OC)C5)cccc4n3)c(C)c12` [Example 102, 7-Acetyl-N-(5-((3-methoxyazetidin-1-yl)carbonyl)quinolin-2-yl)-4-(methoxymethyl)-3-methylbenzo[b]thiophene-2-carboxamide], the IC50 in assay [1] worked out at 0.7 nM; at PDE10A, 0.3 nM. The “% inhibition” value in the assay with Male C57BL/6 Cr mice came out at 120%.

Turning to `COCc1ccc(C(C)=O)c2sc(C(=O)Nc3ccc4c(C(=O)N5CC(OC)C5)cccc4n3)c(C)c12` [Example 103, 7-Acetyl-N-(5-((3-methoxyazetidin-1-yl)carbonyl)quinolin-2-yl)-4-(methoxymethyl)-3-methylbenzo[b]thiophene-2-carboxamide hydrochloride], the IC50 in assay [1] (hydrochloride) was determined as 0.31 nM.

For `COCc1ccc(C(C)=O)c2sc(C(=O)Nc3ccc4c(C(=O)N5CC(OC)C5)cccc4n3)c(C)c12` [Example 104, 7-Acetyl-N-(5-((3-methoxyazetidin-1-yl)carbonyl)quinolin-2-yl)-4-(methoxymethyl)-3-methylbenzo[b]thiophene-2-carboxamide benzenesulfonate], the IC50 in assay [1] (benzenesulfonate) was 2.2 nM.

Consider `COCc1ccc(C(C)=O)c2sc(C(=O)Nc3ccc4c(C(=O)N5CC(OC)C5)cccc4n3)c(C)c12` [Example 105, 7-Acetyl-N-(5-((3-methoxyazetidin-1-yl)carbonyl)quinolin-2-yl)-4-(methoxymethyl)-3-methylbenzo[b]thiophene-2-carboxamide methanesulfonate], for which the 50% inhibitory concentration (IC50) in assay [1] (methanesulfonate) stood at 2.1 nM.

Regarding `COCc1ccc(C(C)=O)c2sc(C(=O)Nc3ccc4c(C(=O)N5CC(OC)C5)cccc4n3)c(C)c12` [Example 107, 7-Acetyl-N-(5-((3-methoxyazetidin-1-yl)carbonyl)quinolin-2-yl)-4-(methoxymethyl)-3-methylbenzo[b]thiophene-2-carboxamide hydrobromide], the half-inhibitory concentration (IC50) in assay [1] (hydrobromide) came to 0.73 nM.

On to `COCc1ccc(C(C)=O)c2sc(C(=O)Nc3ccc4c(CS(C)(=O)=O)cccc4n3)c(C)c12` [Example 109, 7-Acetyl-4-(methoxymethyl)-3-methyl-N-(5-((methylsulfonyl)methyl)quinolin-2-yl)benzo[b]thiophene-2-carboxamide], for which the concentration for half-maximal inhibition (IC50) in assay [1] came to 0.61 nM.

For the molecule `COCc1ccc(C(C)=O)c2sc(C(=O)Nc3ccc4c(CS(C)(=O)=O)cccc4n3)c(C)c12` [Example 111, 7-Acetyl-4-(methoxymethyl)-3-methyl-N-(5-((methylsulfonyl)methyl)quinolin-2-yl)benzo[b]thiophene-2-carboxamide methanesulfonate], the half-inhibitory concentration (IC50) in assay [1] (methanesulfonate) turned out to be 1.1 nM.

For the molecule `Br.COCc1ccc(C(C)=O)c2sc(C(=O)Nc3ccc4c(CS(C)(=O)=O)cccc4n3)c(C)c12` [Example 112, 7-Acetyl-4-(methoxymethyl)-3-methyl-N-(5-((methylsulfonyl)methyl)quinolin-2-yl)benzo[b]thiophene-2-carboxamide hydrobromide], the half-inhibitory concentration (IC50) in assay [1] (hydrobromide) came out at 0.84 nM. The “% inhibition” value in the assay with Male C57BL/6 Cr mice is recorded as 57%.

In general, inhibition in vivo refers to the change of the read-out against control, counted positive when it falls. Molecule `[2H]C([2H])([2H])OCc1ccc(C(C)=O)c2sc(C(=O)Nc3ccc4c(COC)cccc4n3)c(C)c12` [Example 118, 7-Acetyl-4-((^2H3)methoxymethyl)-N-(5-(methoxymethyl)quinolin-2-yl)-3-methylbenzo[b]thiophene-2-carboxamide] displayed a concentration for half-maximal inhibition (IC50) at PDE10A of 0.76 nM. This molecule came in with an inhibition in vivo at 10 mg/kg in the assay on Male C57BL/6 Cr mice of 77%.

Molecule `[2H]C([2H])([2H])OCc1ccc(C(C)=O)c2sc(C(=O)Nc3ccc4c(C(=O)N5CC(OC)C5)cccc4n3)c(C)c12` [Example 121, 7-Acetyl-N-(5-((3-methoxyazetidin-1-yl)carbonyl)quinolin-2-yl)-4-((^2H3)methoxymethyl)-3-methylbenzo[b]thiophene-2-carboxamide] showed an IC50 against PDE10A of 0.57 nM. This molecule showed an inhibition in vivo at 10 mg/kg in the assay on Male C57BL/6 Cr mice of 59%.

As for `COCc1ccc(C(C)=O)c2sc(C(=O)Nc3cc(CN4CCN(C)CC4)c4ccccc4n3)c(C)c12` [Example 125, 7-Acetyl-4-(methoxymethyl)-3-methyl-N-(4-((4-methylpiperazin-1-yl)methyl)quinolin-2-yl)benzo[b]thiophene-2-carboxamide], the half-inhibitory concentration (IC50) against PDE10A came out at 0.8 nM. Besides, the inhibition in vivo at 10 mg/kg with Male C57BL/6 Cr mice is 86%.
